Molecular target: rat PGT (Rattus norvegicus (Rat), UniProt Q00910)
Assay: [3H]PGE2 uptake inhibition in MDCK cells stably transfected with rat PGT (percent inhibition and IC50)
Type: cell-based
Conditions: for Inh (% of Ctl) 1 μM: 1 μM compound; for Inh (% of Ctl) 10 μM: 10 μM compound; for Inh (% of Ctl) 5 μM: 5 μM compound; for IC50: [3H]PGE2 uptake, MDCK cells stably transfected with rat PGT; for Inh (% of Ctl) 0.5 μM: 0.5 μM compound; for Inh (% of Ctl) 2.5 μM: 2.5 μM compound
Method: MDCK cells stably transfected with rat PGT (Endo et al., 2002) were seeded at 15-20% confluence on 24-well plates. The day on which the cells were seeded was considered day 1. PGE2 uptake experiments were conducted on day 4. All of the PGE2 uptake experiments were conducted at room temperature. On day 4, cells were washed twice with Waymouth buffer (135 mM NaCl, 13 mM H-Hepes, 13 mM Na-Hepes, 2.5 mM CaCl2, 1.2 mM MgCl2, 0.8 mM MgSO4, 5 mM KCl, and 28 mM D-glucose). Then 200 μL of Waymouth buffer containing [^3H]PGE2 (purchased from Perkin Elmer) was added to each well. At the designed time, the uptake of [^3H]PGE2 was stopped by aspiration of uptake buffer; this was followed by immediate washing twice with 500 μL of chilled Waymouth buffer. Cells were then lysed with 100 μL lysis buffer containing 0.25% SDS and 0.05 N NaOH. 1.5 mL of scintillation solution was added to each well, and intracellular [^3H]PGE2 was counted by MicroBeta Counter.
For preliminary testing of the compounds, 20 μL of Waymouth buffer containing the compound was added to each well; this was immediately followed by the addition of 180 μL of Waymouth buffer containing [^3H]PGE2. In each well, the total volume of uptake medium was 200 μL. Organic compounds were first dissolved in EtOH and then diluted in Waymouth buffer. The percent inhibition of [^3H]PGE2 uptake by compounds was calculated as [(uptakevehicle−uptakeinhibitor)÷(uptakevehicle)]×100.
IC50 was calculated by fitting an equation of y=m1−m1*(m0/(m2+m0)).

Row | Structure (SMILES) | Inh (% of Ctl) 1 μM (inhibition of [3H]PGE2 uptake) | Inh (% of Ctl) 10 μM (inhibition of [3H]PGE2 uptake) | Inh (% of Ctl) 5 μM (inhibition of [3H]PGE2 uptake) | IC50 [µM] | Inh (% of Ctl) 0.5 μM (inhibition of [3H]PGE2 uptake) | Inh (% of Ctl) 2.5 μM (inhibition of [3H]PGE2 uptake) | Inh (% of Ctl) 0.1 μM (0.1 μM compound, inhibition of [3H]PGE2 uptake)
1 | NCCOCCOCCNc1nc(Nc2ccccc2)nc(Nc2ccc(O)cc2)n1 [compound 45] | 5.0 % of Ctl | 12.9 % of Ctl | – | – | – | – | –
2 | COC(=O)COCCOCCNC(=O)c1ccc(Nc2nc(NCCOCCOCCNC(=O)c3ccccc3)nc(Nc3ccc(O)cc3)n2)cc1 [compound 47] | 22.6 % of Ctl | 76.5 % of Ctl | – | – | – | – | –
3 | COC(=O)COCCOCCNc1nc(Nc2ccccc2)nc(Nc2ccc(O)cc2)n1 [compound 49] | 1.7 % of Ctl | 12.5 % of Ctl | – | – | – | – | –
4 | COC(=O)CCCCCCNc1nc(Nc2ccccc2)nc(Nc2ccc(O)cc2)n1 [compound 50] | 9.3 % of Ctl | 15.1 % of Ctl | – | – | – | – | –
5 | O=C(O)COCCOCCNc1nc(Nc2ccccc2)nc(Nc2ccc(O)cc2)n1 [compound 51] | 17.4 % of Ctl | 29.8 % of Ctl | – | – | – | – | –
6 | O=C(O)CCCCCCNc1nc(Nc2ccccc2)nc(Nc2ccc(O)cc2)n1 [compound 52] | 0.1 % of Ctl | 1.8 % of Ctl | – | – | – | – | –
7 | O=C(NCCOCCOCCNc1nc(Nc2ccccc2)nc(Nc2ccc3cn[nH]c3c2)n1)c1ccccc1 [compound 53] | 65.2 % of Ctl | 86.4 % of Ctl | 83.4 % of Ctl | 4.04 | – | – | –
8 | O=C(NCCOCCOCCNc1nc(Nc2ccccc2)nc(Nc2ccc(-c3nnn[nH]3)cc2)n1)c1ccccc1 [compound 54] | 33.7 % of Ctl | 52.2 % of Ctl | – | – | – | – | –
9 | CCCCCCNc1nc(Nc2ccccc2)nc(Nc2ccc(O)cc2)n1 [compound 55] | 12.7 % of Ctl | 26.1 % of Ctl | – | – | – | – | –
10 | O=C(NCCOCCOCCNc1nc(Nc2ccccc2)nc(Nc2ccc(O)c(Cl)c2)n1)c1ccccc1 [compound 56] | 38.0 % of Ctl | 80.5 % of Ctl | – | – | – | – | –
11 | O=C(O)Cc1ccc(Nc2nc(NCCOCCOCCNC(=O)c3ccccc3)nc(Nc3ccccc3)n2)cc1 [compound 57] | 27.4 % of Ctl | 56.6 % of Ctl | 29.5 % of Ctl | 5.57 | – | – | –
12 | O=C(O)c1ccc(Nc2nc(NCCOCCOCCNC(=O)c3ccccc3)nc(Nc3ccccc3)n2)cc1 [compound 58] | 16.25 % of Ctl | 52.5 % of Ctl | 41.0 % of Ctl | – | – | – | –
13 | O=C(NCCOCCNc1nc(Nc2ccccc2)nc(Nc2ccc(O)cc2)n1)c1ccccc1 [compound 59] | 36.8 % of Ctl | 75.8 % of Ctl | – | 2.46 | – | – | –
14 | COC(=O)Cc1ccc(Nc2nc(NCCOCCOCCNC(=O)c3ccccc3)nc(Nc3ccccc3)n2)cc1 [compound 60] | 7.2 % of Ctl | 34.5 % of Ctl | – | – | – | – | –
15 | COC(=O)c1ccc(Nc2nc(NCCOCCOCCNC(=O)c3ccccc3)nc(Nc3ccccc3)n2)cc1 [compound 61] | 7.5 % of Ctl | 46.1 % of Ctl | – | – | – | – | –
16 | O=C(NCCCCCCNc1nc(Nc2ccccc2)nc(Nc2ccc(O)cc2)n1)c1ccccc1 [compound 62] | 20.4 % of Ctl | 50.1 % of Ctl | – | – | – | – | –
17 | O=C(NCCCCCCCNc1nc(Nc2ccccc2)nc(Nc2ccc(O)cc2)n1)c1ccccc1 [compound 63] | 11.0 % of Ctl | 44.1 % of Ctl | – | – | – | – | –
18 | CCCCCCNC(=O)c1ccc(Nc2nc(NCCOCCOCCNC(=O)c3ccccc3)nc(Nc3ccc4[nH]ncc4c3)n2)cc1 [compound 65] | 66.4 % of Ctl | 90.0 % of Ctl | 84.0 % of Ctl | 1.38 | 18.4 % of Ctl | – | –
19 | O=C(NCCOCCOCCNc1nc(Nc2ccccc2)nc(Nc2ccc(O)cc2)n1)c1ccccc1C(F)(F)F [compound 72] | 19.7 % of Ctl | 75.3 % of Ctl | 66.1 % of Ctl | – | – | – | –
20 | O=C(NCCOCCOCCNc1nc(Nc2ccccc2)nc(Nc2ccc3cn[nH]c3c2)n1)c1ccccc1 [compound 75] | 8.4 % of Ctl | 12.5 % of Ctl | 10.1 % of Ctl | – | – | – | –
21 | O=C(NCCOCCOCCNc1nc(Nc2ccc(O)cc2)nc(Nc2ccc3c(c2)C(=O)NC3=O)n1)c1ccccc1 [compound 77] | – | – | 23.2 % of Ctl | – | 1.8 % of Ctl | 4.3 % of Ctl | –

Continued, values first:

Row | Inh (% of Ctl) 1 μM (inhibition of [3H]PGE2 uptake) | Inh (% of Ctl) 10 μM (inhibition of [3H]PGE2 uptake) | Inh (% of Ctl) 5 μM (inhibition of [3H]PGE2 uptake) | IC50 [µM] | Inh (% of Ctl) 0.5 μM (inhibition of [3H]PGE2 uptake) | Inh (% of Ctl) 2.5 μM (inhibition of [3H]PGE2 uptake) | Inh (% of Ctl) 0.1 μM (0.1 μM compound, inhibition of [3H]PGE2 uptake) | Structure (SMILES)
22 | 4.1 % of Ctl | 32.4 % of Ctl | – | – | – | – | – | NS(=O)(=O)c1ccc(Nc2nc(NCCOCCOCCNC(=O)c3ccccc3)nc(Nc3ccc(O)cc3)n2)cc1 [compound 46]
23 | 14.2 % of Ctl | 62.8 % of Ctl | – | – | – | – | – | O=C(O)CCCCCCNC(=O)c1ccc(Nc2nc(NCCOCCOCCNC(=O)c3ccccc3)nc(Nc3ccc(O)cc3)n2)cc1 [compound 48]
24 | 71.6 % of Ctl | 90.2 % of Ctl | 77.2 % of Ctl | 0.115 | 15.5 % of Ctl | – | – | O=C(NCCOCCOCCNc1nc(Nc2ccc(C(=O)NCc3ccccc3)cc2)nc(Nc2ccc3[nH]ncc3c2)n1)c1ccccc1 [compound 64]
25 | – | – | 64.4 % of Ctl | – | 10.9 % of Ctl | – | – | CC(C)(NC(=O)c1ccc(Nc2nc(NCCOCCOCCNC(=O)c3ccccc3)nc(Nc3ccc(O)cc3)n2)cc1)c1ccccc1 [compound 66]
26 | – | – | 76.1 % of Ctl | – | 13.4 % of Ctl | – | – | O=C(NCCOCCOCCNc1nc(Nc2ccc(O)cc2)nc(Nc2ccc(C(=O)NCc3cccnc3)cc2)n1)c1ccccc1 [compound 67]
27 | – | – | 70.8 % of Ctl | – | 15.0 % of Ctl | – | – | CN(Cc1ccccc1)C(=O)c1ccc(Nc2nc(NCCOCCOCCNC(=O)c3ccccc3)nc(Nc3ccc(O)cc3)n2)cc1 [compound 68]
28 | – | – | 83.2 % of Ctl | 0.89 | 24.9 % of Ctl | – | – | O=C(NCCOCCOCCNc1nc(Nc2ccc(O)cc2)nc(Nc2ccc(C(=O)OCc3ccccc3)cc2)n1)c1ccccc1 [compound 69]
29 | – | – | 84.0 % of Ctl | 1.05 | 21.2 % of Ctl | – | – | O=C(NCCOCCOCCNc1nc(Nc2ccc(O)cc2)nc(Nc2ccc(C(=O)NCc3ccccn3)cc2)n1)c1ccccc1 [compound 70]
30 | – | – | 78.4 % of Ctl | – | 16.7 % of Ctl | – | – | O=C(NCCOCCOCCNc1nc(Nc2ccc(O)cc2)nc(Nc2ccc(C(=O)NCc3ccncc3)cc2)n1)c1ccccc1 [compound 71]
31 | – | – | 75.3 % of Ctl | – | – | 38.9 % of Ctl | – | COC(=O)[C@H](NC(=O)c1ccc(Nc2nc(NCCOCCOCCNC(=O)c3ccccc3)nc(Nc3ccc(O)cc3)n2)cc1)c1ccccc1 [compound 73]
32 | – | – | 82.0 % of Ctl | – | 51.6 % of Ctl | 56.9 % of Ctl | 45.0 % of Ctl | COC(=O)[C@@H](NC(=O)c1ccc(Nc2nc(NCCOCCOCCNC(=O)c3ccccc3)nc(Nc3ccc(O)cc3)n2)cc1)c1ccccc1 [compound 74]
33 | – | – | 70.5 % of Ctl | – | 13.5 % of Ctl | 35.9 % of Ctl | – | CCCCCCCC(=O)c1ccc(Nc2nc(NCCOCCOCCNC(=O)c3ccccc3)nc(Nc3ccc(O)cc3)n2)cc1 [compound 76]
34 | – | – | 83.2 % of Ctl | – | 15.5 % of Ctl | 24.5 % of Ctl | – | O=C(NCCOCCOCCNc1nc(Nc2ccc(O)cc2)nc(Nc2cccc(C(=O)NCc3ccccc3)c2)n1)c1ccccc1 [compound 78]
35 | – | – | 54.9 % of Ctl | – | 5.4 % of Ctl | 29.2 % of Ctl | – | O=C(NCCOCCOCCNc1nc(Nc2ccc(O)cc2)nc(Nc2ccc(C(=O)N[C@@H](C(=O)O)c3ccccc3)cc2)n1)c1ccccc1 [compound 79]
36 | – | – | 57.2 % of Ctl | – | 0.7 % of Ctl | 21.8 % of Ctl | – | O=C(NCCOCCOCCNc1nc(Nc2ccc(O)cc2)nc(Nc2ccc(C(=O)N[C@H](C(=O)O)c3ccccc3)cc2)n1)c1ccccc1 [compound 80]
37 | – | – | 80.1 % of Ctl | – | 0.4 % of Ctl | 16.2 % of Ctl | – | COc1cc(Nc2nc(NCCOCCOCCNC(=O)c3ccccc3)nc(Nc3ccc(O)cc3)n2)ccc1C(=O)NCc1ccccc1 [compound 81]
38 | – | – | 47.6 % of Ctl | – | 2.1 % of Ctl | 5.0 % of Ctl | – | O=C(NCCOCCOCCNc1nc(Nc2ccc(O)cc2)nc(Nc2ccc(C(=O)NCc3ccccc3)c(C(F)(F)F)c2)n1)c1ccccc1 [compound 82]

Reference: patent US8952150B2, “Prostaglandin transporter inhibitors and uses thereof” (Albert Einstein College of Medicine of Yeshiva University, priority 2009, dated 2015)
